The results in this text go back to ChEMBL document CHEMBL1134201, “Exploring the relationship between binding modes of 9-(aminomethyl)-9,10-dihydroanthracene and cyproheptadine analogues at the 5-HT2A serotonin receptor” (Bioorg Med Chem Lett, 2001).

T1 sequence (P14842 whole entry): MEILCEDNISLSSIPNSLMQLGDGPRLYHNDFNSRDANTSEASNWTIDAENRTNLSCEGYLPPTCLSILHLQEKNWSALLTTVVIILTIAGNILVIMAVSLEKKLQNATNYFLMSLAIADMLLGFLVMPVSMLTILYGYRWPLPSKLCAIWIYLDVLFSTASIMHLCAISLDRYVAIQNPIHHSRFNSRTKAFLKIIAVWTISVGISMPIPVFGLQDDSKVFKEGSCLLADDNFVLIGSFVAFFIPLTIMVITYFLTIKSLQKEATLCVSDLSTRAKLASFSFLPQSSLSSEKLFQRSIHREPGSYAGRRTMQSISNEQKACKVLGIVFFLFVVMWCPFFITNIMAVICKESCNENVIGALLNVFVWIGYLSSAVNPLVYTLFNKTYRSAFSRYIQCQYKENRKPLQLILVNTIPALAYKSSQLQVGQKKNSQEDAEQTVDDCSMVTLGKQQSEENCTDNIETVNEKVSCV

One assay concerns the target T1, 5-hydroxytryptamine receptor 2A (Rattus norvegicus, UniProt P14842). The assay can be described thus: Binding affinity against 5-hydroxytryptamine 2A receptor expressed NIH3T3 cells using [3H]ketanserin. The format is cell-based.
Take `NCC1c2ccccc2CCc2ccccc21`: the Ki was 112 nM. On to `NCC1c2ccccc2Oc2ccccc21`, for which affinity was put at a Ki of 170 nM. Molecule `CN1CCC(=C2c3ccccc3Cc3ccccc32)CC1` returned a Ki of 0.7 nM. Take `NCC1c2ccccc2Sc2ccccc21`: the Ki turned out to be 65 nM.

Another assay addresses T1, 5-hydroxytryptamine receptor 2A. As to the kind of experiment: Binding affinity against 5-hydroxytryptamine 2A receptor from rat forebrain using [3H]ketanserin as radioligand.
For the molecule `CN1CCC(=C(c2ccccc2)c2ccccc2)CC1`, the Ki is 13 nM.

The molecule `CN1CCC(=C2c3ccccc3CCc3ccccc32)CC1` came in with a Ki of 9 nM. Regarding `CN1CCC(=C2c3ccccc3Oc3ccccc32)CC1`, the affinity, expressed as Ki, was 4 nM. Still for that read-out and setting: the value for `CC(=C1CCN(C)CC1)c1ccccc1` was 355 nM; that for `CN1CCC(=C2c3ccccc3Sc3ccccc32)CC1` [PIMETHIXENE] was 2.5 nM; that for `CN1CCC(=C2c3ccccc3-c3ccccc32)CC1` was 199 nM.
